According to patent publication US10201558B2, “Compositions of selenoorganic compounds and methods of use thereof” (Alltech, Inc., priority 2014, dated 2019):

Test system: primary fetal rat neurons
Experiment: Cell survival of primary cortical neurons (cell counts)
Assay type: cell-based
Conditions: 24 hours, Control 100 ± 1.57, mixture: 30 ppb of the element from each compound; for Viable Cell Number (Mean ± SEM, n = 6): 150 ppb selenium compound(s); for Viable Cell Number (Mean + SEM, n = 6): 150 ppb sulfur compound(s)
Procedure: For primary neurons, dissociated primary cortical neuron cultures were established from E-18 rat embryos as previously described (Lovell et al., Free Radic. Biol. Med. 2000; Lovell et al., Neurobiol. Aging 2001). Studies were carried out on cells 7 days in culture by switching to Locke's solution consisting of 1 mL of 154 mM NaCl, 5.6 mM KCl, 2.3 mM CaCl2, 1.0 mM MgCl2, 3.6 mM NaHCO3, 10 mM glucose, 5 mM HEPES (pH 7.2) with 10 mg/L gentamicin sulfate. Primary neurons were treated for 24 hours in Locke's solution with the indicated selenium and sulfur compounds in Table 5. Cell counts were performed to measure cell survival/toxicity.
The effects of the selenium and sulfur compounds, identified as components of water extracts of selenium-enriched yeast, on neuronal cell survival was also tested. Primary neurons isolated from fetal rat brain were incubated with chemically synthesized individual selenium and sulfur compounds that were identified as components of water extracts of selenium-enriched yeast (Table 5). In this case, the elemental concentration of each compound identified in Table 5 was 150 ppb and, where mixtures were used, the 150 ppb treatment was made up of 30 ppb of the element from each of the five compounds in question.

SMILES | Viable Cell Number (Mean ± SEM, n = 6) | Viable Cell Number (Mean + SEM, n = 6)
C[Se]C[C@H](N)C(=O)O [A, L-Methylselenocysteine] | 94.45 ± 1.72 | 
C[Se]CC[C@H](N)C(=O)O [B, L-Selenomethionine] | 90.59 ± 6.82 | 
CSC[C@H]1O[C@@H](n2cnc3c(N)ncnc32)[C@H](O)[C@@H]1O [Compound H, 5′-deoxy-5′-methylthioadenosine] |  | 100.24 ± 9.45
CSC[C@H](N)C(=O)O [F, L-Methylcysteine] |  | 96.48 ± 3.89
CSCC[C@H](N)C(=O)O [G, L-methionine] |  | 103.84 ± 4.98
